Data as given in patent publication US10450260B2, “NO- and H2S-releasing compounds” (RESEARCH FOUNDATION OF THE CITY UNIVERSITY OF NEW YORK, priority 2011, dated 2019).
“Also recorded” adds a separate entry of the source.

Assays:
[1] = system: eleven different cancer cell lines; assay: MTT cell growth inhibition, all cell lines of the panel; format: cell-based; conditions: Homo sapiens; 24 hr; colon, breast, pancreas, lung, prostate, leukemia cancer cell lines of Table 1
Protocol: HT-29, SW-480 and HCT-15 human colon adenocarcinoma, MIA PaCa-2 and BxPC-3 human pancreatic cancer, LNCAP human prostate cancer, A549 human lung cancer, MCF-7 (estrogen receptor positive), MDA-MB 231 and SK-BR-3 (estrogen receptor negative) human breast cancer, and Jurkats human leukemia cell lines were obtained from American Type Tissue Collection (Manassas, Va.). All cells lines were grown as monolayers except for the Jurkats which were grown in suspension. […] Single cell suspensions were obtained by trypsinization (0.05% trypsin/EDTA), and cells were counted using a hemocytometer. Viability was determined by the trypan blue dye exclusion method.
Cell growth inhibitory effect of NOSH compounds were measured using a colorimetric MTT assay kit (Roche, Indianapolis, Ind.). […] The absorbance of the plates was measured on an ELISA reader at a wavelength of 570 nm. […]
HT-29, SW-480 and HCT-15 human colon adenocarcinoma, MIA PaCa-2 and BxPC-3 human pancreatic cancer, LNCAP human prostate cancer, A549 and H383 human lung cancer, MCF-7, MDA-MB 231 and SK-BR-3 human breast cancer and Jurkat T cell human leukemia cell lines were obtained from American Type Tissue Collection (Manassas, Va.) All cells lines were grown as monolayers except for the Jurkat T cells which were grown as suspension culture. […] Viability was determined by the trypan blue dye exclusion method. […]

COX-1 = assay: Western blot of COX-1 in paw exudates; format: in vivo, rat; conditions: NOSH-1 at 2 doses one hour before carrageenan
Protocol: Exudates (oedema fluid) and some tissue were homogenized in lysis buffer (0.1% Triton X-100, 50 μM pepstatin, 0.2 mM leupeptin, 1 μg/mL aprotinin, 10 mg/ml phenylmethylsulfonyl fluoride, 50 mM Tris, and 10 mM EDTA). Samples were then centrifuged, and the protein concentration of the supernatant was determined by colorimetric assay (Bio-Rad, Hercules, Calif.). Protein (30 μg) was separated on a 10% polyacrylamide gel and then transferred to a nitrocellulose membrane (Bio-Rad, Hercules, Calif.). Proteins were probed with monoclonal mouse antibody against COX-1 and COX-2 (1:500; Cayman Chemical, Ann Arbor, Mich.). The membrane was then incubated with a goat anti-mouse IgG secondary antibody conjugated to horseradish peroxidase (Santacruz Biotechnology, Santa Cruz, Calif.). A chemiluminescence reagent (Amersham Pittsburg, Pa.) was added to visualize the labeling according to the manufacturer's instructions.

HT-29 colon cancer cells [2] = assay: Cell cycle analysis, PI staining and flow cytometry; format: cell-based, human
Protocol: (§1) Growth inhibition was measured using a colorimetric MTT assay kit (Roche, Indianapolis, Ind.). Proliferation (PCNA) was assessed using an ELISA kit from Calbiochem, (La Jolla, Calif.). Cell cycle phase distributions and apoptosis of control and treated cells were determined as previously described. All methods are described in Chattopadhyay et al., Biochemical Pharmacology, 2012, 83(6), 715-722.

HT-29 colon cancer cells [3] = assay: Apoptosis, Annexin V staining and flow cytometry; format: cell-based, human
Protocol: as §1

HT-29 cells xenograft = assay: HT-29 tumor xenograft in athymic nude mice; format: in vivo, mouse
Protocol: Male athymic nude (NU/NU) mice (N=8), age 5 weeks, were purchased from Charles River Laboratories, Inc., (Wilmington, Mass.). HT-29 cells (2×10^6) suspended in 50% v/v Matrigel (BD Biosciences, San Jose, Calif.) were inoculated subcutaneously in the right flanks of each mouse. When the tumors reached an average sizes of ˜80 mm^3, the mice were randomly divided (N=4/group) and gavaged daily for 18 days with either vehicle (1% methylcelloluse) or NOSH-1 (100 mg/kg body weight). Tumor size (length and width) was measured at 3 day intervals with an electronic caliper from which tumor volume was calculated as length×width^2/2. The mice were weighed every 3 days and were closely monitored for signs of toxicity.

Compound | IC50 [1] | COX-1 expression in paw exudates induced by carrageenan (COX-1) | cell population in G2/M phase (HT-29 colon cancer cells [2]; 1×IC50, 24 hours, control 26.9±2.2) | cell population in S phase (HT-29 colon cancer cells [2]; 1×IC50, 24 hours, control 30.2±2.3%) | cell population in G0/G1 phase (HT-29 colon cancer cells [2]; 1×IC50, 24 hours, control 42.9±2%) | cell population in G0/G1 phase (HT-29 colon cancer cells [2]; 2×IC50, 24 hours) | cell population in G2/M phase (HT-29 colon cancer cells [2]; 2×IC50, 24 hours) | cell population in S phase (HT-29 colon cancer cells [2]; 2×IC50, 24 hours) | cells in early apoptotic phase (HT-29 colon cancer cells [3]; 0.5×IC50, 24 hours) | cells in early apoptotic phase (HT-29 colon cancer cells [3]; 1×IC50, 24 hours) | cells in early apoptotic phase (HT-29 colon cancer cells [3]; 2×IC50, 24 hours) | signs of toxicity (HT-29 cells xenograft; 100 mg/kg daily for 18 days) | mean reduction of tumor volume (HT-29 cells xenograft; 100 mg/kg daily for 18 days, vs control) | mean tumor volume (HT-29 cells xenograft; 100 mg/kg daily gavage for 18 days, control 2300±200) | tumor volume versus vehicle (FIG. 7B) (HT-29 cells xenograft; 6 days after treatment to sacrifice, P<0.05 day 6, P<0.01 days 9-18) | average weight of the mice, beginning of the study (HT-29 cells xenograft; treated mice, 100 mg/kg daily) | average weight of the mice, end of the study (HT-29 cells xenograft; treated mice, 100 mg/kg daily for 18 days)
CC(=O)Oc1ccccc1C(=O)O [ASA, aspirin, reference compound] | > 5 mM |  |  |  |  |  |  |  |  |  |  |  |  |  |  |  | 
O=C(CCCO[N+](=O)[O-])Oc1ccccc1C(=O)Oc1ccc(-c2cc(=S)ss2)cc1 [NOSH-1, 4-(3-thioxo-3H-1,2-dithiol-5-yl)phenyl 2-((4-(nitrooxy)butanoyl)oxy)benzoate] |  | inhibited induction; also recorded: inhibited to the same extent | 15.4±2.6% | 22.6±1.3% | 62.0±2.3% | 74.2±1.2% | 9.5±1.8% | 16.3±1.2 | 24.7±1.4% | 32.8±2.1% | 55.9±3.3% | no overt signs of toxicity | 85% | 350±35 mm^3 | significantly reduced tumor volume | 21.7 ± 0.82 g | 27.2 ± 1.1 g
